# Values quoted from earlier work in patent US7605180B2, “Nateglinide-containing preparation” (Ajinomoto Co., Inc., priority 2000, dated 2009).
# What was measured:
# blood glucose = conditions: oral administration
compound,measurement,setting,value
"CC(C)[C@H]1CC[C@H](C(=O)N[C@H](Cc2ccccc2)C(=O)O)CC1 [nateglinide, N-(trans-4-isopropylcyclohexylcarbonyl)-D-phenylalanine]",Water solubility,,poorly water soluble
same,Blood glucose-lowering effect,blood glucose,excellent blood glucose-lowering effect
